From patent publication US10730905B2, “Substituted heteropentadieno-pyrrolopyrimidine ribonucleosides for therapeutic use” (USTAV ORGANICKE CHEMIE A BIOCHEMIE AV CR, V.V.I., priority 2016, dated 2020)

Columns and labels:
[1] = tested on: U2OS (human bone osteosarcoma); assay: MTT cytotoxic test, U2OS; assay type: cell-based; settings: U2OS cells
Source text: (§1) MTT test (Nosková V. et al., Neoplasma 2002, 49, 418-425) was used for in vitro evaluation of antitumor activities of newly synthesized compounds on cell lines derived from normal tissues or tumors. Specifically, cell lines K562 (human acute myeloid leukemia); K562-Tax (human acute myeloid leukemia, paclitaxel resistant subline, overexpress multiple drug resistant protein PgP); CEM (T-lymfoblastic leukemia); CEM-DNR-bulk (T-lymfoblastic leukemia, doxorubicin resistant); A549 (human lung adenocarcinoma); HCT116p53 wt (human colorectal cancer, wild-type); HCT116p53−/− (human colorectal cancer, mutant p53) a U2OS (human bone osteosarcoma) were used. Express characteristics, susceptibility profiles of classic antitumor drugs as well as methodology of cytotoxic MTT test have been repeatedly published (Denizot, F.; Lang, R., J. Immunol. Meth. 1986, 89, 271-277; Noskova, V., see above; S̆arek J. et al., J, Med. Chem., 2003).

[2] = tested on: HCT116p53−/− (human colorectal cancer, mutant p53); assay: MTT cytotoxic test, HCT116p53; assay type: cell-based; settings: HCT116p53 cells (p53 −/−)
Source text: as §1

[3] = tested on: CEM-DNR-bulk (T-lymfoblastic leukemia, doxorubicin resistant); assay: MTT cytotoxic test, CEM-DNR; assay type: cell-based; settings: Homo sapiens, CEM-DNR cells
Source text: as §1

[4] = MTT cytotoxic test, MRC-5; assay type: cell-based; settings: MRC-5 cells (normal fibroblasts), MRC-5 normal human fibroblasts
[5] = tested on: HCT116p53 wt (human colorectal cancer, wild-type); assay: MTT cytotoxic test, HCT116; assay type: cell-based; settings: HCT-116, HCT116 cells, p53 wild type
Source text: as §1

[6] = tested on: CCRF-CEM (CEM, T-lymfoblastic leukemia); assay: MTT cytotoxic test, CCRF-CEM; assay type: cell-based; settings: Homo sapiens, CCRF-CEM cells
Source text: as §1

[7] = tested on: K562-Tax (human acute myeloid leukemia, paclitaxel resistant subline); assay: MTT cytotoxic test, K562-TAX; assay type: cell-based; settings: K562-TAX cells
Source text: as §1

[8] = tested on: K562 (human acute myeloid leukemia); assay: MTT cytotoxic test, K562; assay type: cell-based; settings: K562 cells
Source text: as §1

[9] = tested on: A549 (human lung adenocarcinoma); assay: MTT cytotoxic test, A549; assay type: cell-based; settings: A549 cells
Source text: as §1

Cc1ncnc2c1c1c(ccn1C)n2[C@@H]1O[C@H](CO)[C@@H](O)[C@H]1O [Compound 2a, 4,5-Dimethyl-8-(β-D-ribofuranosyl)-5,8-dihydropyrrolo[2′,3′:4,5]pyrrolo[2,3-d]pyrimidine]
IC50 [1]: 0.2 to 0.9 µM | IC50 [2]: 0.2 to 0.9 µM | IC50 [3]: 25 to 50 µM | IC50 [4]: 25 to 50 µM | IC50 [5]: 0.2 to 0.9 µM | IC50 [6]: 0.2 to 0.9 µM | IC50 [7]: 25 to 50 µM | melting point: 237 to 241 °C | IC50 [8]: 0.2 to 0.9 µM

COc1ncnc2c1c1c(ccn1C)n2[C@@H]1O[C@H](CO)[C@@H](O)[C@H]1O [Compound 2b, 4-Methoxy-5-methyl-8-(β-D-ribofuranosyl)-5,8-dihydropyrrolo[2′,3′:4,5]pyrrolo[2,3-d]pyrimidine]
IC50 [1]: 0.9 to 10 µM | IC50 [2]: 0.2 to 0.9 µM | IC50 [3]: 25 to 50 µM | IC50 [4]: 25 to 50 µM | IC50 [9]: 25 to 50 µM | IC50 [5]: 0.2 to 0.9 µM | IC50 [6]: 0.2 to 0.9 µM | IC50 [7]: 25 to 50 µM | melting point: 231 to 234 °C | IC50 [8]: 0.2 to 0.9 µM

CSc1ncnc2c1c1c(ccn1C)n2[C@@H]1O[C@H](CO)[C@@H](O)[C@H]1O [Compound 2c, 5-Methyl-4-(methylsulfanyl)-8-(β-D-ribofuranosyl)-5,8-dihydropyrrolo[2′,3′:4,5]pyrrolo-[2,3-d]-pyrimidine]
IC50 [1]: 0.9 to 10 µM | IC50 [2]: 0.2 to 0.9 µM | IC50 [3]: 25 to 50 µM | IC50 [4]: 25 to 50 µM | IC50 [9]: 25 to 50 µM | IC50 [5]: 0.2 to 0.9 µM | IC50 [6]: 0.2 to 0.9 µM | IC50 [7]: 25 to 50 µM | melting point: 212 to 214 °C | IC50 [8]: 0.2 to 0.9 µM

Cn1ccc2c1c1c(N)ncnc1n2[C@@H]1O[C@H](CO)[C@@H](O)[C@H]1O [Compound 2d, 5-methyl-8-(β-D-ribofuranosyl)-5,8-dihydropyrrolo[2′,3′:4,5]pyrrolo[2,3-d]pyrimidin-4-amine]
IC50 [1]: 25 to 50 µM | IC50 [2]: 25 to 50 µM | IC50 [3]: 25 to 50 µM | IC50 [4]: 25 to 50 µM | IC50 [9]: 25 to 50 µM | IC50 [5]: 25 to 50 µM | IC50 [6]: 25 to 50 µM | IC50 [7]: 25 to 50 µM | melting point: 240 to 245 °C (dec.) | IC50 [8]: 25 to 50 µM

Cn1ccc2c1c1c(-c3ccco3)ncnc1n2[C@@H]1O[C@H](CO)[C@@H](O)[C@H]1O [Compound 2e, 4-(Furan-2-yl)-5-methyl-8-(β-D-ribofuranosyl)-5,8-dihydropyrrolo[2′,3′:4,5]pyrrolo[2,3-d]pyrimidine]
IC50 [1]: 0.9 to 10 µM | IC50 [2]: 25 to 50 µM | IC50 [3]: 25 to 50 µM | IC50 [4]: 25 to 50 µM | IC50 [9]: 25 to 50 µM | IC50 [5]: 25 to 50 µM | IC50 [6]: 25 to 50 µM | IC50 [7]: 25 to 50 µM | melting point: 245 to 253 °C | IC50 [8]: 25 to 50 µM

Cn1ccc2c1c1c(-c3ccoc3)ncnc1n2[C@@H]1O[C@H](CO)[C@@H](O)[C@H]1O [Compound 2f, 4-(Furan-3-yl)-5-methyl-8-(β-D-ribofuranosyl)-5,8dihydropyrrolo[2′,3′:4,5]pyrrolo[2,3-d]pyrimidine]
IC50 [1]: 0.9 to 10 µM | IC50 [2]: 0.9 to 10 µM | IC50 [3]: 25 to 50 µM | IC50 [4]: 25 to 50 µM | IC50 [9]: 25 to 50 µM | IC50 [5]: 25 to 50 µM | IC50 [6]: 25 to 50 µM | IC50 [7]: 25 to 50 µM | melting point: 202 to 207 °C | IC50 [8]: 0.9 to 10 µM

Cn1ccc2c1c1c(-c3cc4ccccc4o3)ncnc1n2[C@@H]1O[C@H](CO)[C@@H](O)[C@H]1O [Compound 2g, 4-(Benzofuran-2-yl)-5-methyl-8-(β-D-ribofuranosyl)-5,8-dihydropyrrolo[2′,3′:4,5]pyrrolo[2,3-d]pyrimidine]
IC50 [1]: 25 to 50 µM | IC50 [2]: 25 to 50 µM | IC50 [3]: 25 to 50 µM | IC50 [4]: 25 to 50 µM | IC50 [9]: 25 to 50 µM | IC50 [5]: 25 to 50 µM | IC50 [6]: 10 to 25 µM | IC50 [7]: 25 to 50 µM | melting point: 145 to 154 °C | IC50 [8]: 25 to 50 µM

CN(C)c1ncnc2c1c1c(ccn1C)n2[C@@H]1O[C@H](CO)[C@@H](O)[C@H]1O [Compound 2h, N,N,5-trimethyl-8-(β-D-ribofuranosyl)-5,8-dihydropyrrolo[2′,3′:4,5]pyrrolo[2,3-d]pyrimidin-4-amine]
IC50 [1]: 25 to 50 µM | IC50 [2]: 25 to 50 µM | IC50 [3]: 25 to 50 µM | IC50 [4]: 25 to 50 µM | IC50 [9]: 25 to 50 µM | IC50 [5]: 25 to 50 µM | IC50 [6]: 25 to 50 µM | IC50 [7]: 25 to 50 µM | melting point: 99 to 106 °C | IC50 [8]: 25 to 50 µM

Cn1ccc2c1c1c(Cl)ncnc1n2[C@@H]1O[C@H](CO)[C@@H](O)[C@H]1O [Compound 2i, 4-chloro-5-methyl-8-(β-D-ribofuranosyl)-5,8-dihydropyrrolo[2′,3′:4,5]pyrrolo[2,3-d]pyrimidine]
IC50 [1]: 0.9 to 10 µM | IC50 [2]: 0.01 to 0.2 µM | IC50 [3]: 25 to 50 µM | IC50 [4]: 25 to 50 µM | IC50 [9]: 0.9 to 10 µM | IC50 [5]: 0.01 to 0.2 µM | IC50 [6]: 0.01 to 0.2 µM | IC50 [7]: 25 to 50 µM | melting point: 217 to 219 °C | IC50 [8]: 0.01 to 0.2 µM
